This is an account of results in US6716442B2, “Process and means for the eradication of fleas in the habitats of small mammals” (Merial, priority 1997, dated 2004).

SMILES strings stand for the structures. Where two headings read alike, the source gives them in different places.

The subject of test [1] is fleas. To be noted: dogs; concentrated solution for point application (spot on); cited from earlier work.
Test [2] has as its system fleas. To be noted: cats; concentrated solution for point application (spot on); cited from earlier work.
Test [3] has as its system fleas (Ctenocephalides felis). Description: Eradication of fleas in enclosures of infested dogs treated monthly with a spot-on solution. It counts as in vivo. The note with it: group C, 10% fipronil cutaneous point solution on days 0, 28, 56, 84, weekly egg counts, body and comb counts over weeks 1-12, regularly reinfested. From the text:
The test used dogs in good health.
The dogs were divided by groups of three dogs into enclosures of area approximately 4.80 m long (16 feet) and 1.5 m wide (5 feet) each containing a shelter and soil especially favourable to the development of the immature stages of the fleas (Ctenocephalides felis).
A total of 18 dogs, that is to say six enclosures, was allocated to the control group A.
A group C of six dogs (2 enclosures) preinfested in this way received the treatment according to the invention by application of a cutaneous point solution having a concentration of 10% of fipronil.
The doses of concentrated composition for local cutaneous application of fipronil were as follows:
The animals of group C were treated on day 0 and then every 28 days, that is to say the days 28, 56 and 84.

The test system of test [4] is fleas. Description: Similar flea eradication test on cats. It is filed as in vivo. To be noted: same results as dogs.

On to `N#Cc1nn(-c2c(Cl)cc(C(F)(F)F)cc2Cl)c(N)c1[S+]([O-])C(F)(F)F` (stereo not shown) [fipronil, 1-[2,6-Cl2-4-CF3-phenyl]-3-CN-4-[SO—CF3]-5-NH2-pyrazole], for which the “period of anti-flea efficacy” value in the test on fleas [1] is 2 to 3 months; with fleas [2], “six”. In addition, the “rate of control of the infestation” value in test [3] came to 100%. The reinfestation entry in the test with fleas [4] is listed as “total absence of reinfestation”.
